From paper PMC7228089, “Odiparcil, a potential glycosaminoglycans clearance therapy in mucopolysaccharidosis VI—Evidence from in vitro and in vivo models” (PLoS ONE, 2020)

Legend:
Arsb^- mice [1] = test: Urinary excretion of total sulphated GAG (Blyscan) in mice treated with odiparcil; type: in vivo
Method: (§1) MPS VI model nonsense mutation Arsb^m1J homozygous mice (referred to as Arsb^- throughout the manuscript) and WT littermates were obtained from internal breeding of stock mice derived from The Jackson Laboratory strain No: 005598 (C57BL/6J-Arsb^m1J/GrsrJ). Genotyping and Arsb^m1J mutation identification were performed according to the protocol provided by The Jackson Laboratory. Each study group contained mix of male and female: 6 animals in disease progression studies and between 8 and 12 animals in odiparcil treatment studies.
Housing conditions. The animals were housed in groups of 3–10 (for mice) or 2 (for rats) in polypropylene cages (floor area = 1032 cm^2) under standard conditions: room temperature (22 ± 2°C), hygrometry (55 ± 10%), light/dark cycle (12h/12h), air replacement (15–20 volumes/hour), water and food ad libitum. […]
Total sulphated GAG in cell culture media were determined colorimetrically by DMMB method (described in [31] adapted for cell culture media). Total sulphated GAG in snap frozen liver and kidney samples and urine were measured using Blyscan assay from Biocolor Company (UK) following manufacturer’s instructions. […] For GAG in tissues quantification, individual pieces (approximately 50 mg) were removed from the frozen samples (liver and kidney), weighed and digested in 1 mL papain solution prepared according to the Blyscan kit protocol. […]

[2] = more than 30 clinical trials, total of 1900 subjects; earlier development as antithrombotic agent; cited from earlier work
Arsb^- mice [3] = test: Sulphated GAG accumulation in liver and kidney (Alcian Blue staining, Blyscan); type: in vivo; settings: for Liver sulphated GAG accumulation / Kidney sulphated GAG accumulation: Arsb^- mice; for Liver sulphated GAG accumulation: 6 months of treatment; for Kidney sulphated GAG accumulation: Alcian Blue
Method: as §1
Housing conditions. The animals were housed in groups of 3–10 (for mice) or 2 (for rats) in polypropylene cages (floor area = 1032 cm^2) under standard conditions: room temperature (22 ± 2°C), hygrometry (55 ± 10%), light/dark cycle (12h/12h), air replacement (15–20 volumes/hour), water and food ad libitum. Mice were allowed to habituate for at least 5 days prior to experimentation. Mice were numbered by marking their tail using indelible markers. For the early disease model (treatment starting in juvenile, 4 weeks old mice), odiparcil administration in the weeks 1 to 6 was done per gavage with odiparcil in Methylcellulose 400 cps 1% / Poloxamer 188 0.1% / Water, freshly prepared every week. Later on, administration was per chow diet with odiparcil mixed before diet granulation. For advanced disease treatment (treatment starting in adult, 3 months old mice), administration was per diet from the beginning of the study. WT and Arsb^- animals were randomized into groups: control and two doses of odiparcil: 1.5 g odiparcil per kg of diet and 4.5 g odiparcil per kg of diet. For urine collection, animals were placed for 24 hours in standard metabolism cages (2 or 3 animals per cage). At the end of the studies, animals were anesthetized (O2 / isoflurane), blood for smears was collected from ocular sinus and after euthanasia samples from liver and kidney (snap frozen for total GAG analysis by Blyscan method or fixed for histology, see below) and from trachea and knee from the left hind leg were collected.
Total sulphated GAG in cell culture media were determined colorimetrically by DMMB method (described in [31] adapted for cell culture media). Total sulphated GAG in snap frozen liver and kidney samples and urine were measured using Blyscan assay from Biocolor Company (UK) following manufacturer’s instructions. Urine samples were processed directly according to the kit manual. For GAG in tissues quantification, individual pieces (approximately 50 mg) were removed from the frozen samples (liver and kidney), weighed and digested in 1 mL papain solution prepared according to the Blyscan kit protocol. After the extraction, 20 μL from each reaction were used for sulphated GAG determination following the Blyscan kit protocol. The obtained values for sulphated GAG were adjusted to the volume of papain reaction and were normalized to the weight of the tissue used or, in the case of urine samples, to creatinine levels.
GAG tissue accumulation in liver and kidney sections was estimated based on Alcian Blue staining performed at low pH (pH 1), at which the dye stained predominantly sulphated GAG. Two slides at different levels per tissue block were used. Staining with 1% Alcian Blue in hydrochloric acid was performed on automated Leica Autostainer. […] Then for each proof image, an RGB index was calculated that was the mean of Red + Green + Blue intensities of all non-black pixels. […]

Cc1cc(=O)oc2cc(O[C@@H]3SC[C@@H](O)[C@H](O)[C@H]3O)ccc12 [Odiparcil, 4-methyl-7-(5-thio-β-D-xylopyranosyloxy)-2 H-chromen-2-one]
Urinary GAG after discontinuation of the treatment (Arsb^- mice [1]; Arsb^- mice, two weeks after discontinuation): no elevated GAG were detected on top of the basal level | Total sulphated GAG in urine (Arsb^- mice [1]; wild type and Arsb^- mice, oral 1.5 or 4.5 g/kg diet, after 3 and 6 months, early and advanced disease protocols): elevation of total GAG in urine | Safety and tolerability in clinical trials [2]: good safety and tolerability | Liver sulphated GAG accumulation (Arsb^- mice [3]; early disease model, 1.5 and 4.5 g/kg diet): significantly reduced liver GAG at both doses | Kidney sulphated GAG accumulation (Arsb^- mice [3]; early disease model, 6 months, effect not significant): reduced kidney GAG | Liver sulphated GAG accumulation (Arsb^- mice [3]; established disease model, highest dose (4.5 g/kg diet)): significantly reduced liver GAG | Kidney sulphated GAG accumulation (Arsb^- mice [3]; established disease model, 6 months): significant only in the latter model | Liver and kidney GAG levels in wild type animals (Arsb^- mice [3]; wild type mice, two doses of odiparcil, 6 months): no significant effects on GAG levels
